For orientation: TGI means the concentration giving total growth inhibition. Read a high TGI as lower sensitivity of the cells. Broadly, the GI50 is the concentration giving 50% growth inhibition.

Several values for one entry are separate records, joined by “and”; a condition that tells them apart may be missing. Identical values can stand only once.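 96-well plates; 48 h exposure; 5 concentrations. Endpoints by linear interpolation between flanking doses. Not reached: highest tested concentration assigned. GI50: concentration for 50% inhibition of growth. The concentration for full growth arrest is given as TGI.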 Where only a bound is given, the exact number is not on record here.

Some test systems named below: HCT-116 colon; UACC-62 melanoma; HT29 colon; MDA-MB-231 breast; T-47D breast; SNB-19 CNS; SF-295 CNS; 786-0 renal; M14 melanoma; SF-539 CNS; SK-MEL-2 melanoma; NCI-H23 lung; UACC-257 melanoma; HS 578T breast; RPMI-8226 leukemia.
Common to all, as to experiment: DTP human tumour cell line panel, 48 h

Turning to `Cc1c(O)c(OC2OC(CO)C(O)C(O)C2O)cc2c1CC[C@@H]1C2(C)C(=O)C[C@]2(C)[C@@H]([C@@](C)(O)C(O)CCC(C)(C)O)[C@H](O)C[C@@]12C` (stereo not given in full), the TGI in the test with HCT-116 colon, in the test with UACC-62 melanoma, in the test with HT29 colon, with MDA-MB-231 breast, with T-47D breast and in the test with SNB-19 CNS was greater than 100 µM in each case. For the same compound, the total growth inhibition concentration (TGI) with SF-295 CNS, with 786-0 renal, in the test on M14 melanoma, in the test on SF-539 CNS, in the test on SK-MEL-2 melanoma and in the test with NCI-H23 lung was greater than 100 µM throughout. The same compound gave a TGI in the test with UACC-257 melanoma greater than 100 µM.
With `COc1cc(-c2c(C(C)=O)c(-c3ccccc3)n(C3OC(COC(C)=O)C(OC(C)=O)C(OC(C)=O)C3OC(C)=O)c(=S)c2C#N)ccc1O` (stereo not given), the TGI with HCT-116 colon, in the test with UACC-62 melanoma, with HT29 colon, in the test with HS 578T breast, in the test with SNB-19 CNS and with SF-295 CNS was greater than 100 µM each time. Moreover, the TGI in the test with 786-0 renal, with M14 melanoma, in the test with NCI-H23 lung, in the test on UACC-257 melanoma and with RPMI-8226 leukemia was greater than 100 µM in each case. Besides, the GI50 in the test on UACC-257 melanoma was > 100 µM and 34.9 µM; in the test on RPMI-8226 leukemia it was 34.5 µM.
For `COC1(CCO)CC=CCC1(CCO)OC` (stereo not given), the TGI with HCT-116 colon, in the test on UACC-62 melanoma, in the test on HT29 colon, in the test on HS 578T breast, in the test on T-47D breast and with SNB-19 CNS was greater than 100 µM each time. For the same compound, the concentration for total growth inhibition (TGI) in the test with SF-295 CNS, in the test with 786-0 renal, in the test with M14 melanoma, with SK-MEL-2 melanoma, in the test on UACC-257 melanoma and in the test with RPMI-8226 leukemia was greater than 100 µM in each case.
`Cc1[nH]c2ncn(N)c(=N)c2c1Cc1ccccc1`: the total growth inhibition concentration (TGI) in the test with HCT-116 colon, in the test with UACC-62 melanoma, in the test on HT29 colon, with MDA-MB-231 breast, in the test on T-47D breast and in the test with SNB-19 CNS was greater than 100 µM throughout. The TGI in the test with SF-295 CNS, in the test on 786-0 renal, in the test on M14 melanoma, with SF-539 CNS, in the test with SK-MEL-2 melanoma and in the test on NCI-H23 lung was greater than 100 µM each time. The concentration for total growth inhibition (TGI) in the test on UACC-257 melanoma and in the test on RPMI-8226 leukemia was greater than 100 µM in each case.
As for `COc1ccc2c(c1)OCC1Cc3cccc(OC)c3OC21` (stereo not given), the TGI with HCT-116 colon, with UACC-62 melanoma, with HT29 colon, with MDA-MB-231 breast, with T-47D breast and with SF-295 CNS was greater than 100 µM each time. Besides, the TGI in the test with 786-0 renal, in the test with M14 melanoma, with SF-539 CNS, with SK-MEL-2 melanoma, in the test on NCI-H23 lung and with UACC-257 melanoma was greater than 100 µM throughout. The same compound returned a total growth inhibition concentration (TGI) in the test on RPMI-8226 leukemia greater than 100 µM.
`CC[n+]1c(/C=C/c2ccc(N(CCCl)CCCl)cc2)ccc2cc(Br)ccc21`: the concentration for total growth inhibition (TGI) in the test on HCT-116 colon was 482 µM; in the test with UACC-62 melanoma it was 7.55 µM; in the test with SNB-19 CNS it was 2.57 µM; with 786-0 renal, 10.1 µM; in the test with M14 melanoma, 4.19 µM; in the test on SF-539 CNS, 4.29 µM. In the test on SK-MEL-2 melanoma, this compound came in with a TGI of 1.28 µM. The GI50 is 548 µM in the test on HT29 colon; 1150 µM with SF-295 CNS; 172 µM with NCI-H23 lung; 95.8 µM with UACC-257 melanoma; 162 µM with RPMI-8226 leukemia.
As to `O=C(O)C1CCCCN1CCc1c[nH]c2ccccc12` (stereo not given), the TGI in the test with HCT-116 colon, in the test on UACC-62 melanoma, in the test on HT29 colon, in the test on MDA-MB-231 breast, in the test with T-47D breast and in the test with SNB-19 CNS was greater than 100 µM each time. Also, the total growth inhibition concentration (TGI) in the test with SF-295 CNS, in the test with 786-0 renal, in the test on M14 melanoma, with SF-539 CNS, with SK-MEL-2 melanoma and in the test on NCI-H23 lung was greater than 100 µM in each case. For the same compound, the TGI with UACC-257 melanoma and in the test with RPMI-8226 leukemia was greater than 100 µM in each case.
In the case of `O=C1C2=Cc3ccccc3CCN2c2ccc([N+](=O)[O-])cc21`, the TGI with HCT-116 colon, in the test on UACC-62 melanoma, with HT29 colon, with MDA-MB-231 breast, with HS 578T breast and with SNB-19 CNS was greater than 100 µM throughout. For the same compound, the TGI in the test on SF-295 CNS, in the test on 786-0 renal, in the test on M14 melanoma, in the test with SF-539 CNS, in the test on NCI-H23 lung and in the test with UACC-257 melanoma was greater than 100 µM in each case. In the test on RPMI-8226 leukemia, the TGI is greater than 100 µM.
As to `O=C(CC(C(=O)c1ccsc1)c1cccs1)c1ccsc1` (stereo not given), the TGI with UACC-62 melanoma was greater than 100 µM; in the test on HT29 colon, greater than 100 µM; in the test on MDA-MB-231 breast, greater than 100 µM; in the test on T-47D breast it was 84.3 µM; in the test with SNB-19 CNS, greater than 100 µM; in the test on SF-295 CNS it was greater than 100 µM. Further, the TGI in the test on 786-0 renal, in the test on M14 melanoma, in the test on SK-MEL-2 melanoma, in the test on NCI-H23 lung, in the test on UACC-257 melanoma and with RPMI-8226 leukemia was greater than 100 µM in each case.
Take `CCOC(=O)c1cc(NC(=O)c2ccccc2)c(=O)n2c(cc3c(Cl)cccc32)c1O`: the concentration for total growth inhibition (TGI) with HCT-116 colon, in the test with UACC-62 melanoma, in the test on HT29 colon, with MDA-MB-231 breast, with HS 578T breast and with SNB-19 CNS was greater than 100 µM each time. For the same compound, the TGI in the test with SF-295 CNS, with 786-0 renal, with M14 melanoma, in the test with SF-539 CNS, in the test with SK-MEL-2 melanoma and with NCI-H23 lung was greater than 100 µM in each case. Moreover, the TGI in the test on UACC-257 melanoma and with RPMI-8226 leukemia was greater than 100 µM in each case.

The values above are taken from PubChem BioAssay (NCI).
